The test system of data set [1] is LPS-induced microglia activation. Put plainly: Image-based assay of LPS-induced microglia activation (HTS and dose response). Conditions: for inhibition at 10 µM: Rattus norvegicus, Microglia, read-out: LPS % inhibition. It counts as cell-based, rat.
In data set [2] the test system is fibrin-induced microglia activation. Put plainly: Image-based assay of fibrin-induced microglia activation (HTS and dose response). The format is cell-based, rat. The conditions noted are these: for inhibition at 10 µM: Rattus norvegicus, Microglia, read-out: Fibrin % inhibition; for inhibition at 10 µM / Fibrin % inhibition: primary microglia HTS, fibrin stimulation.

Data set [3] relates to primary rat microglia. Put plainly: Cell toxicity (dead cells, size <150 μm2) in coated fibrin (cFib) assay.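 For Fibrin % cell toxicity: share of dead cells sized under 150 µm2 at 10 µM in fibrin-stimulated microglia HTS.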 The conditions noted are these: for IC50: read-out: Cell Toxicity IC50 (uM) [cFib assay].
Data set [4] relates to primary rat microglia. Put plainly: Cell toxicity (dead cells, size <150 μm2) in LPS assay. Conditions: for IC50: read-out: Cell Toxicity IC50 (uM) [LPS assay].
Data set [5] has as its system fibrin- and LPS-induced microglia activation. Put plainly: cells. It counts as cell-based, rat. Conditions: for Hit: HTS hit classification.
The mark [6] stands for this setting: 48 h, primary microglia HTS, LPS stimulation, increased cell size (>800 μm^2) as marker of activation.
Where [7] appears, read: increased cell size (>800 μm^2) as marker of activation.
The mark [8] stands for this setting: primary microglia HTS, fibrin stimulation, decreased size (<150 μm^2) as marker of toxicity.
[9] abbreviates: primary microglia HTS, LPS stimulation, decreased size (<150 μm^2) as marker of toxicity.
[10] abbreviates: quadrant by fibrin and LPS inhibition in HTS of 1907 compounds.
The mark [11] stands for this setting: LPS-induced microglia activation, dose response, read-out: LPS IC50 (uM) (Suppl. Table 7).
The mark [12] stands for this setting: Table 1, dose response 0.001-20 μM, triplicates, primary rat microglia, 48 h, read-out: LPS IC50.
Setting [13] is: dose response, LPS-induced microglia activation, read-out: LPS IC50.
The mark [14] stands for this setting: primary microglia HTS, LPS stimulation, increased cell size (>800 μm^2) as marker of activation.
Where [15] appears, read: Table 1, dose response 0.001-20 μM, triplicates, primary rat microglia, 48 h, read-out: Fibrin IC50.
[16] abbreviates: dose response, fibrin-induced microglia activation, read-out: Fibrin IC50.
Setting [17] is: fibrin-induced microglia activation, dose response, read-out: Fibrin IC50 (uM) (Suppl. Table 7).
[18] abbreviates: HTS of 1907 compounds, quadrant by fibrin and LPS inhibition.
Setting [19] is: hit classification in microglia HTS.

“And” between values parts separate entries of the source, which are not always exact repeats. Equal entries are not always repeated. Structures can show the parent of a compound that is named as a salt. Where two headings read alike, the source gives them in different places. A value given as a limit tells only on which side of the number the result lay.

A word on the inhibition: it is the change of the read-out against control, counted positive when it falls. One may read the IC50 as the concentration that gives 50% inhibition.

For `C#C[C@]1(OC(C)=O)CC[C@H]2[C@@H]3CCC4=CC(=NO)CC[C@@H]4[C@H]3CC[C@@]21CC` (mixture of isomers) [Norgestimate], the inhibition at 10 µM in data set [1] (setting [6]) was 12%; in data set [2] (setting [7]) it was -5%. The “Fibrin % cell toxicity” value in the data set on primary rat microglia [3] (setting [8]) came out at 0%. The “LPS % cell toxicity” value in the data set with primary rat microglia [4] (setting [9]) turned out to be 0%. Besides, the “Quadrant (FIG. 5b)” value in data set [5] (setting [10]) was “Q4”.

With `CCCCCCc1ccc(O)cc1O.Nc1c2ccccc2nc2ccccc12` [Acrisorcin, reference compound], the 50% inhibitory concentration (IC50) in data set [1] (setting [11]) is 5 µM; in data set [1] (setting [12]), 5 µM; in data set [1] (setting [13]), 5 µM; in data set [2] (setting [15]), 7 µM; in data set [2] (setting [16]), 7 µM; in data set [2] (setting [17]), 7 µM. Also, the IC50 in the data set on primary rat microglia [4] (LPS assay) is 6 µM. For the same compound, the LPS % inhibition in data set [1] (setting [14]) is recorded as 113%. Besides, in data set [2] (setting [7]), the Fibrin % inhibition is 87%. Besides, the “Fibrin % cell toxicity” value in the data set with primary rat microglia [3] (setting [8]) is listed as 2%. Also, the “LPS % cell toxicity” value with primary rat microglia [4] (setting [9]) came to 52%. The Hit result in data set [5] is reported as “HIT (Hits were defined as molecules that exhibited greater than 50% inhibition of either fibrin or LPS activation)”. In addition, the “Quadrant (FIG. 5b)” value in data set [5] (setting [18]) was “Q2”; in data set [5] (Table 1, screen at 10 μM), “Q2”; in data set [5] (setting [10]) it was “Q2”. Besides, in data set [5] (setting [19]), the “Cherry-picked Hit (Suppl. Table 7)” value is on record as “HIT (Hits were defined as molecules that exhibited greater than 50% inhibition of either fibrin or LPS activation)”.

Turning to `CCC(=O)OCC(=O)[C@@]1(OC(=O)CC)[C@H](C)C[C@H]2[C@H]3[C@H]([C@@H](O)C[C@@]21C)[C@@]1(C)C=CC(=O)C=C1C[C@H]3Cl` [Alclometazone dipropionate, reference compound], the IC50 in data set [1] (setting [11]) is 2 µM; in data set [1] (setting [12]), 2 µM; in data set [1] (Table 3, read-out: LPS IC50 (uM) (Suppl. Table 7)), 2 µM; in data set [1] (Table 6, read-out: LPS IC50 (uM) (Suppl. Table 7)) it was 2 µM; in data set [1] (setting [13]) it was 2 µM; in data set [2] (setting [15]), less than 0.001 µM. Moreover, the half-maximal inhibitory concentration (IC50) is less than 0.001 µM in data set [2] (Table 3, read-out: Fibrin IC50 (uM) (Suppl. Table 7)); less than 0.001 µM in data set [2] (Table 6, read-out: Fibrin IC50 (uM) (Suppl. Table 7)); less than 0.001 µM in data set [2] (setting [16]); less than 0.001 µM in data set [2] (setting [17]); more than 20 µM in the data set with primary rat microglia [3] (Table 3); more than 20 µM in the data set with primary rat microglia [3] (cFib assay). Besides, the 50% inhibitory concentration (IC50) with primary rat microglia [3] (cFib assay, Table 6) was more than 20 µM; with primary rat microglia [4] (LPS assay) it was more than 20 µM; in the data set with primary rat microglia [4] (LPS assay, Table 6), more than 20 µM; with primary rat microglia [4] (Table 3), more than 20 µM. In addition, the LPS % inhibition in data set [1] (setting [14]) was 82%. Also, the “Fibrin Selectivity (LOG10)” value in data set [2] amounted to 3.33; in data set [2] (fibrin vs LPS, LOG10, Table 6) it was 3.33. The “Fibrin Selectivity” value in data set [2] (fibrin vs LPS, Table 6) is given as 2153; in data set [2] (listed as Alclometazone Dipropion), not below 2153; in data set [2] (listed as Alclometazone Dipropionate), 2153. Also, in data set [2] (setting [7]), the Fibrin % inhibition is on record as 105%. The “Fibrin % cell toxicity” value in the data set with primary rat microglia [3] (setting [8]) was found to be 2%. In addition, the “LPS % cell toxicity” value with primary rat microglia [4] (setting [9]) was determined as 2%. For the same compound, the Hit entry in data set [5] is “HIT (Hits were defined as molecules that exhibited greater than 50% inhibition of either fibrin or LPS activation)”. Further, the “Quadrant (FIG. 5b)” value in data set [5] (setting [18]) is listed as “Q2”; in data set [5] (Table 1, screen at 10 μM), “Q2”; in data set [5] (Table 3, screen at 10 μM), “Q2”; in data set [5] (microglia HTS, Table 6), “Q2”; in data set [5] (setting [10]) it was “Q2”. The “Cherry-picked Hit (Suppl. Table 7)” value in data set [5] (Table 3) is on record as “HIT (Hits were defined as molecules that exhibited greater than 50% inhibition of either fibrin or LPS activation)”; in data set [5] (setting [19]) it was “HIT (Hits were defined as molecules that exhibited greater than 50% inhibition of either fibrin or LPS activation)”; in data set [5] (microglia HTS, Table 6) it was “HIT (Hits were defined as molecules that exhibited greater than 50% inhibition of either fibrin or LPS activation)”.

As to `CCCCC(CC)CNC(=N)NC(=N)NCCCCCCNC(=N)NC(=N)NCC(CC)CCCC` (stereo not drawn) [Alexidine Hydrochloride], the results for the inhibition at 10 µM in data set [1] (setting [6]) and in data set [2] (setting [7]) were 120% and 108%, respectively. Further, the “Fibrin % cell toxicity” value with primary rat microglia [3] (setting [8]) stood at 5%. The “LPS % cell toxicity” value in the data set on primary rat microglia [4] (setting [9]) was 9%. Further, the “Quadrant (FIG. 5b)” value in data set [5] (setting [10]) is listed as “Q2”.

Take `OC[C@H]1O[C@@H](n2cnc3c(O)ncnc32)[C@H](O)[C@@H]1O` [Inosine]: the inhibition at 10 µM in data set [1] (48 h, primary microglia HTS, LPS stimulation, activation = cell size >800 μm2) was -11%; in data set [1] (setting [6]) it was 115%; in data set [2] (activation = cell size >800 μm2), -31%; in data set [2] (setting [7]) it was 111%. Further, the “Fibrin % cell toxicity” value in the data set on primary rat microglia [3] (primary microglia HTS, fibrin stimulation, toxicity = cell size <150 μm2) is on record as 1%; in the data set on primary rat microglia [3] (setting [8]), 7%. The “LPS % cell toxicity” value in the data set on primary rat microglia [4] (primary microglia HTS, LPS stimulation, toxicity = cell size <150 μm2) came out at 0%; with primary rat microglia [4] (setting [9]) it was 2%.

With `CCC(Cc1c(I)cc(I)c(N)c1I)C(=O)O` (stereo not drawn) [lopanic Acid], the IC50 (in data set [1] (setting [11]); in the data set on primary rat microglia [3] (cFib assay); in the data set with primary rat microglia [4] (LPS assay)) was more than 20 µM in each case. The “Quadrant (FIG. 5b)” value in data set [5] (setting [18]) is reported as “Q3”. For the same compound, in data set [5] (setting [19]), the “Cherry-picked Hit (Suppl. Table 7)” value is recorded as “HIT (Hits were defined as molecules that exhibited greater than 50% inhibition of either fibrin or LPS activation)”.

For Benzalkonium Chloride, the LPS % inhibition in data set [1] (setting [14]) is recorded as 122%. Also, the “Fibrin % cell toxicity” value in the data set with primary rat microglia [3] (setting [8]) came out at 71%. Moreover, the “LPS % cell toxicity” value with primary rat microglia [4] (setting [9]) is 31%. Also, in data set [5] (setting [10]), the “Quadrant (FIG. 5b)” value is listed as “Q2”.

As to Carboplatin, in data set [1] (primary HTS, 10 μM, LPS-stimulated primary microglia), the LPS % inhibition was 4% and 7%. Also, the “Fibrin % cell toxicity” value in the data set with primary rat microglia [3] (primary HTS, 10 μM, fibrin assay, dead cells size <150 μm2) is recorded as 1%. In addition, the “LPS % cell toxicity” value in the data set on primary rat microglia [4] (primary HTS, 10 μM, LPS assay, dead cells size <150 μm2) came to 0%. For the same compound, the “Quadrant (FIG. 5b)” value in data set [5] (primary HTS, 10 μM) is reported as “Q4”.

(Values after patent US20210330611A1, “THERAPY FOR NEUROLOGICAL DISEASES/DISORDERS” (priority 2020, published 2021).)
